According to patent publication US20220009894A1, “1,2,3,4-TETRAHYDROQUINOXALINE DERIVATIVE, PREPARATION METHOD THEREFOR AND APPLICATION THEREOF” (Abbisko Therapeutics Co., Ltd., priority 2019, published 2022):

Assays:
[1] = target: T1, RORγt-LBD (Homo sapiens, UniProt P51449); experiment: Time-resolved fluorescence resonance energy-transfer assay (TR-FRET), co-activator peptide recruitment; assay type: biochemical; parameters: TR-FRET Biochemical Amax: unit not given here; conditions: for EC50: His-RORγt-LBD 30 nM, SRC peptide 500 nM, agonistic activity, averages of one or more measurements, read-out: TR-FRET Biochemical EC50/; for TR-FRET Biochemical Amax: upper activation limit, His-RORγt-LBD, SRC peptide
T1 sequence (P51449 269-508 limits assumed): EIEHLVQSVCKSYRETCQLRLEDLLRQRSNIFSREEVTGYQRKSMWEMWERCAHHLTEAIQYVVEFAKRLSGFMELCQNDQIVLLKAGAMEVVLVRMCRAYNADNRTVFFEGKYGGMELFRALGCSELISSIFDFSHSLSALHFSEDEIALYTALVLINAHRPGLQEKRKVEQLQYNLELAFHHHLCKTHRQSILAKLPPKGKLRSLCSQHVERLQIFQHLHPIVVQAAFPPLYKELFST
Text: I. Time-Resolved Fluorescence Resonance Energy-Transfer Assay (TR-FRET)
This experiment was a screening experiment for RORγt nuclear receptor agonists based on TR-FRET technology. When His-labeled RORγt-LBD receptor binds to receptor agonists, it may increase the recruitment of biotin-labeled co-activator peptides. Europium-His-RORγt-LBD is indirectly labeled by donor (Eu) by binding to Eu-anti-His antibody. Once Eu is activated by an energy source (such as flashlight or laser), the energy will be transferred to the co-activator indirectly labeled by allophycocyanin by binding of allophycocyanin-streptavidin and biotin-labeled co-activator. • 1. 10× buffer (500 mM Tris-HCl, 500 mM KCl, and 10 mM Na-EDTA) was prepared, pH value was adjusted to 7.0. The buffer was stored at 4° C. for later use and was restored to normal temperature before experiment; • 2. The 10× buffer was diluted to 1× with pure water. Final concentration of 0.01% Triton X-100 and 1 mM DTT (dithiothreitol) were added to prepare the assay buffer; • 3. DMSO was used to prepare 1000× compound stock solution. The compound solution was serial-diluted in 5-fold for 7 concentrations from the top concentration of 1000 nM/10000 nM. Then the 10× compound solution was prepared with assay buffer. An amount of 2 μL was aliquoted into the 20 μL system; • 4. 5×RORγt-LBD protein solution was unfreezed, and a solution of 5× concentration was prepared with assay buffer to obtain a final concentration of 30 nM. The whole operation was carried out on ice; • 5. 5×SRC peptide was unfreezed, and a solution of 5× concentration was prepared with assay buffer to obtain a final concentration of 500 nM. The whole operation was carried out on ice; • 6. 4 μL/well of RORγt-LBD receptor was added into the testing wells of 384-well plate, and the same amount of assay buffer was added to the control wells of non-RORγt-LBD group; • 7. 2 μL of compound was added into each well of 384-well plate; • 8. 4 μL of SRC peptide was added into each well of 384-well plate; • 9. 2× Eu-anti-6× His/APC-Streptavidin was diluted with Lance detection buffer to a final concentration of 0.25 nM and 5 nM, respectively, and then 10 μL of 2× Eu-anti-6× His/APC-Streptavidin was added into each well of 384-well plate; • 10. The mixed solution was incubated at 4° C. overnight; • 11. On the morning of the next day, the 384-well plate was incubated at room temperature for 1 hr. Then the corresponding signal values were read with PerkinElmer EnVision at a wavelength of 665/615 […]. The agonistic activity of the corresponding compound was calculated with Graphpad Prism 7.0 software.

[2] = target: T2, RORγt (Homo sapiens, UniProt P51449); experiment: RORγt cellular reporter gene detection assay; assay type: cell-based; conditions: 24 hrs; for EC50: HEK 293 cells co-transfected with pFN26A-RORγt-LBD and pG14.35, in presence of antagonist Ursolic acid, top concentration 50 μM; for Cellular Reporter Assay Amax: upper activation limit, HEK 293 cells, in presence of antagonist Ursolic acid;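 on Cellular Reporter Assay Amax: Ursolic Acid added as 5 µL of 20 µM medium per well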
T2 construct: The plasmid of pFN26A-RORγt-LBD and pG14.35 (Promega, Cat. No. E1370) were co-transfected into HEK 293 cells; expressed in transfected cells; host or cells: HEK 293 cells (Cat. No. GNHu18)
T2 sequence (P51449 269-508 limits assumed): T1 sequence (P51449 269-508 limits assumed)
Protocol: II. RORγt Cellular Reporter Gene Detection Assay
In this experiment, RORγt Reporter Gene Detection method was used to evaluate the activation and specificity of compounds to RORγt in cells. The plasmid of pFN26A-RORγt-LBD and pG14.35 (Promega, Cat. No. E1370) were co-transfected into HEK 293 cells (Cat. No. GNHu18). The efficacy of compounds was evaluated with the presence of an antagonist Ursolic acid (Selleck, Cat. No. S2370-100 mg). The specific experimental process was as follow: • 1. The plasmids-co-transfected cells were inoculated into a 96-well plate (Corning, Cat. No 3610) in a fresh DMEM medium (Gibco, cat. No. 1773536) containing 10% fetal bovine serum (Gibco, Cat. No. 10099-141) at 30000 cells/40 μL/well; • 2. 5 μL of medium containing 20 μM Ursolic acid was added thereto; • 3. The dose effect was evaluated by a 4-fold dilution of the test compound starting from 50 μM; • 4. 5 μL of medium containing a compound concentration of 10-fold of its final test concentration was added; • 5. After the cells were incubated at 37° C. and 5% CO2 for 24 hrs, 50 μL of detection reagent was added to detect firefly fluorescence using PerkinElmerEnVision, and 50 μL of the second detection reagent was added to detect sea kidney fluorescence; • 6. A four-parameter curve simulated in GraphPad Prism was used to determine the concentration for 50% activation (EC50) and the upper activation limit (Amax) for each compound.

EC50 [1]	TR-FRET Biochemical Amax [1]	EC50 [2]	Cellular Reporter Assay Amax [2]	Compound
32 nM	1.01	418 nM	6.3	O=C(O)CN1CCN2c3ccc(/C=C/c4c(Cl)cccc4C(F)(F)F)cc3N(S(=O)(=O)c3cccc(C(F)(F)F)c3)C[C@@H]2C1 [Example 20, (S,E)-2-(8-(2-chloro-6-(trifluoro-methyl)styryl)-6-((3-(tri-fluoromethyl)phenyl)sulfonyl)-1,2,4,4a,5,6-hexahydro-3H-pyrazino[1,2-a]quinoxalin-3-yl)acetic acid]
98.4 nM	0.68	447 nM	1.1	C[C@@]1(OCCC(N)=O)CCN2c3ccc(-c4cc(F)cc(OC(F)F)c4)cc3N(S(=O)(=O)c3cccc(C(F)(F)F)c3)C[C@@H]2C1 [Example 122, 3-(((6aS,8R)-3-(3-(difluoromethoxy)-5-fluorophenyl)-8-methyl-5-((3-(trifluoromethyl)phenyl)sulfo-nyl)-6,6a,7,8,9,10-hexahydro-5H-pyrido[1,2-a]quinoxalin-8-yl)oxy) propanamide]
18.4 nM	1.61	518 nM	3.3	CN1CCN(S(=O)(=O)c2cccc(C(F)(F)F)c2)c2cc(-c3cc(F)cc(OC(F)F)c3)ccc21 [Example 1, 6-(3-(difluoromethoxy)-5-fluorophenyl)-1-methyl-4-((3-(trifluoromethyl)phenyl)sulfonyl)-1,2,3,4-tetrahydroquinoxaline]
18.3 nM	0.95	1470 nM	3.7	N#CC1(N2CCN3c4ccc(-c5cc(F)cc(OC(F)F)c5)cc4N(S(=O)(=O)c4cccc(C(F)(F)F)c4)C[C@@H]3C2)CCC1 [Example 77, (S)-1-(8-(3-(difluoromethoxy)-5-fluorophenyl)-6-((3-(trifluoro-methyl)phenyl)sulfonyl)-1,2,4,4a,5,6-hexahydro-3H-pyra-zino[1,2-a]quinoxalin-3-yl)cyclo-butane-1-carbonitrile]
40.7 nM	1.23	290 nM	3.7	C/C(=C\c1ccc2c(c1)N(S(=O)(=O)c1cccc(C(F)(F)F)c1)C[C@@H]1CN(C[C@H](O)CO)CCN21)c1c(F)cccc1Cl [Example 38, (S)-3-((S)-8-((E)-2-(2-chloro-6-fluorophenyl)prop-1-en-1-yl)-6-((3-(trifluoromethyl)phe-nyl)sulfonyl)-1,2,4,4a,5,6-hexa-hydro-3H-pyrazino[1,2-a]qui-noxalin-3-yl)propane-1,2-diol]
45.1 nM	1.20	1040 nM	6.2	N#CC(CO)(CO)N1CCN2c3ccc(-c4cc(F)cc(OC(F)F)c4)cc3N(S(=O)(=O)c3cccc(C(F)(F)F)c3)C[C@@H]2C1 [Example 74, (S)-2-(8-(3-(difluoromethoxy)-5-fluorophenyl)-6-((3-(trifluoromethyl)phenyl)sulfonyl)-1,2,4,4a,5,6-hexahydro-3H-pyrazino[1,2-a]quinoxalin-3-yl)-3-hydroxy-2-(hydroxymethyl)propanenitrile]
5.25 nM	0.61	228 nM	3.9	CC(C(=O)O)N1CCN2c3ccc(C4=CC(C)(C)OC(C)(C)C4)cc3N(S(=O)(=O)c3cccc(C(F)(F)F)c3)C[C@@H]2C1 (stereo partly drawn) [Example 27, 2-((S)-8-(2,2,6,6-tetrameth-yl-3,6-dihydro-2H-pyran-4-yl)-6-((3-(trifluorometh-yl)phenyl)sulfonyl)-1,2,4,4a,5,6-hexahydro-3H-pyrazino[1,2-a]quinoxalin-3-yl)propanoic acid]
14.7 nM	0.86	354 nM	2.6	N#CCC(=O)N1CCN2c3ccc(-c4cc(F)cc(OC(F)F)c4)cc3N(S(=O)(=O)c3cccc(C(F)(F)F)c3)C[C@@H]2C1 [Example 28, (S)-3-(8-(3-(difluoromethoxy)-5-fluorophenyl)-6-((3-(trifluoromethyl)phenyl)sulfonyl)-1,2,4,4a,5,6-hexahydro-3H-pyrazino[1,2-a]quinoxalin-3-yl)-3-oxopropanenitrile]
29.1 nM	1.20	1740 nM	4.4	C/C(=C\c1ccc2c(c1)N(S(=O)(=O)c1cccc(C(F)(F)F)c1)C[C@H](CCC(=O)O)N2C)c1c(F)cccc1Cl [Example 3, (S,E)-3-(6-(2-(2-chloro-6-fluorophenyl)prop-1-en-1-yl)-1-methyl-4-((3-(trifluoromethyl)phenyl)sulfonyl)-1,2,3,4-tetrahydroquinoxalin-2-yl)propanoic acid]
100 nM	1.10	602 nM	3.5	NC(=O)CN1CCN2c3ccc(/C=C/c4c(Cl)cccc4C(F)(F)F)cc3N(S(=O)(=O)c3cccc(C(F)(F)F)c3)C[C@@H]2C1 [Example 59, (S,E)-2-(8-(2-chloro-6-(trifluoromethyl)styryl)-6-((3-(trifluoromethyl)phenyl)sulfonyl)-1,2,4,4a,5,6-hexahydro-3H-pyrazino[1,2-a]quinoxalin-3-yl)acetamide]
21.9 nM	0.71	149 nM	2.8	C[C@@]1(OCCC(=O)O)CCN2c3ccc(-c4cc(F)cc(OC(F)F)c4)cc3N(S(=O)(=O)c3cccc(C(F)(F)F)c3)C[C@@H]2C1 [Example 113, 3-(((6aS,8R)-3-(3-(difluoromethoxy)-5-fluorophenyl)-8-methy 1-5-((3-(trifluoromethyl)phenyl)sulfonyl)-6,6a,7,8,9,10-hexahydro-5H-pyrido[1,2-a]quinoxalin-8-yl)oxy)propanoic acid]
61.4 nM	0.98	249 nM	2.8	NC(=O)N1CCN2c3ccc(/C=C/c4c(Cl)cccc4C(F)(F)F)cc3N(S(=O)(=O)c3cccc(C(F)(F)F)c3)C[C@@H]2C1 [Example 60, (S,E)-8-(2-chloro-6-(trifluoromethyl)styryl)-6-((3-(trifluoromethyl)phenyl)sulfonyl)-1,2,4,4a,5,6-hexahydro-3H-pyrazino[1,2-a]quinoxalin-3-carboxamide]
